From US6706663B2, “Herbicidal 3-heterocyclic substituted benzisothiazole and benzisoxazole compounds” (Wyeth, priority 2000, dated 2004)

Experiments:
[1] = tested on: ABUTH (Abutilon theophrasti); assay: Postemergence herbicidal evaluation; type: in vivo, Medic.; conditions: postemergence
Summary of the method: (§1)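 Seedlings grown for about two weeks were sprayed postemergence and then kept under standard greenhouse care. Injury was rated visually 4–5 weeks after treatment on a 0–9 scale against untreated controls, and ratings from repeat tests were averaged.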

[2] = tested on: SAGPY (Sagittaria pygmaea); assay: Flooded paddy, preemergence weed control; type: in vivo, L.; conditions: rated 3-4 weeks after treatment, 0-9 rating scale
Summary of the method: (§2)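 Silt loam, sowing depth ≤0.5 cm; permanent flood 1.5–3 cm above soil; greenhouse culture after treatment. Readout: 0-9 visual scale (stand, vigor, malformation, size, chlorosis, appearance) vs control.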

GALAP (Galium aparine) = assay: Postemergence herbicidal evaluation; type: in vivo; conditions: postemergence
Summary of the method: as §1

[3] = tested on: ECHCG (Echinochloa crus-galli); assay: Preemergence herbicidal evaluation; type: in vivo, (L.) Beau; conditions: rated 4-5 weeks after treatment
Summary of the method: (§3)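 Greenhouse preemergence test: freshly planted cups were sprayed once with an aqueous acetone solution of compound. Injury was judged visually on a 0–9 scale relative to a control, four to five weeks later.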

SETVI (Setaria viridis) [4] = assay: Preemergence herbicidal evaluation; type: in vivo, (L.) Beau; conditions: rated 4-5 weeks after treatment
Summary of the method: as §3

ZEAMX (Corn, Field) = assay: Postemergence herbicidal evaluation; type: in vivo, Zea mays, L.; conditions: postemergence
Summary of the method: as §1

[5] = tested on: ECHORC (Echinochloa oryzoides); assay: Flooded paddy, preemergence weed control; type: in vivo, Echinochloa oryzoides (Ard.) Fritsch.; conditions: rated 3-4 weeks after treatment, 0-9 rating scale
Summary of the method: as §2

ORYSAT (Rice, Tebonnet) [6] = assay: Preemergence herbicidal evaluation; type: in vivo, Oryza sativa, (L.) Tebonnet; conditions: rated 4-5 weeks after treatment
[7] = tested on: AMBEL (Ambrosia artemisifolia); assay: Preemergence herbicidal evaluation; type: in vivo, L.; conditions: rated 4-5 weeks after treatment
Summary of the method: as §3

[8] = tested on: CHEAL (Chenopodium album); assay: Preemergence herbicidal evaluation; type: in vivo, L.; conditions: rated 4-5 weeks after treatment
Summary of the method: as §3

[9] = tested on: CASOB (Cassia obtusifolia); assay: Preemergence herbicidal evaluation; type: in vivo, L.; conditions: rated 4-5 weeks after treatment
Summary of the method: as §3

[10] = tested on: IPOHE (Ipomoea hederacea); assay: Postemergence herbicidal evaluation; type: in vivo, (L.) Jacq.; conditions: postemergence
Summary of the method: as §1

[11] = tested on: GLXMAW (Soybean, Williams); assay: Postemergence herbicidal evaluation; type: in vivo, Glycine max, (L.) Merr. cv Williams; conditions: postemergence
Summary of the method: as §1

ORYSAT (Rice, Tebonnet) [12] = assay: Flooded paddy, post-transplant rice tolerance; type: in vivo, Oryza sativa, (L.) Tebonnet; conditions: flooded paddy, post-transplant rice, rated 3-4 weeks after treatment, 0-9 rating scale
Summary of the method: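 Two ten-day-old Tebonnet rice seedlings transplanted into silt loam, then flooded with water held at 1.5–3 cm above soil; herbicide applied post-transplant. Plants kept in greenhouse and rated visually 0–9 versus untreated control for stand, vigor, malformation, size and chlorosis.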

[13] = tested on: IPOHE (Ipomoea hederacea); assay: Preemergence herbicidal evaluation; type: in vivo, (L.) Jacq.; conditions: rated 4-5 weeks after treatment
[14] = tested on: ECHCG (Echinochloa crus-galli); assay: Postemergence herbicidal evaluation; type: in vivo, (L.) Beau; conditions: postemergence
Summary of the method: as §1

CYPIR (Cyperus iria) = assay: Flooded paddy, preemergence weed control; type: in vivo; conditions: rated 3-4 weeks after treatment, 0-9 rating scale
Summary of the method: as §2

ORYSAT (Rice, Tebonnet) [15] = assay: Postemergence herbicidal evaluation; type: in vivo, Oryza sativa, (L.) Tebonnet; conditions: postemergence
Summary of the method: as §1

SETVI (Setaria viridis) [16] = assay: Postemergence herbicidal evaluation; type: in vivo, (L.) Beau; conditions: postemergence
Summary of the method: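 Ratings use a 0-9 visual scale covering stand, vigor, malformation, size, chlorosis and appearance versus a control, scored 4-5 weeks post-spray. Roughly two-week-old seedlings received about 0.0040-1.000 kg/ha active, applied in 50/50 acetone/water with 0.5% TWEEN 20. Multiple tests per compound were averaged.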

[17] = tested on: MOOVA (Monochoria vaginalis); assay: Flooded paddy, preemergence weed control; type: in vivo, Presl.; conditions: rated 3-4 weeks after treatment, 0-9 rating scale
Summary of the method: as §2

CC1CC(C)(C)OC(c2nsc3ccc(-n4c(=O)cc(C(F)(F)F)n(C)c4=O)cc23)O1 (stereo not drawn) [Compound 55, 1-methyl-6-(trifluoromethyl)-3-[3-(4,4,6-trimethyl-m-dioxan-2-yl)-1,2-benzisothiazol-5-yl]uracil]
ABUTH herbicidal rating ([1]; rate 0.0320 kg/ha): 9.0
ABUTH herbicidal rating ([1]; rate 0.0620 kg/ha): 9.0
herbicidal rating, SAGPY ([2]; rate 0.0080 kg/ha): 0.0
herbicidal rating, SAGPY ([2]; rate 0.0320 kg/ha): 0.0
herbicidal rating, SAGPY ([2]; rate 0.1250 kg/ha): 7.0
GALAP herbicidal rating (GALAP (Galium aparine); rate 0.0320 kg/ha): 2.0
GALAP herbicidal rating (GALAP (Galium aparine); rate 0.0620 kg/ha): 2.0
Preemergence herbicidal rating ECHCG ([3]; Rate 0.0620 kg/ha): 9.0
Preemergence herbicidal rating ECHCG ([3]; Rate 0.1250 kg/ha): 9.0
Preemergence herbicidal rating ECHCG ([3]; Rate 0.2500 kg/ha): 9.0
Preemergence herbicidal rating SETVI (SETVI (Setaria viridis) [4]; Rate 0.0620 kg/ha): 9.0
Preemergence herbicidal rating SETVI (SETVI (Setaria viridis) [4]; Rate 0.1250 kg/ha): 9.0
Preemergence herbicidal rating SETVI (SETVI (Setaria viridis) [4]; Rate 0.2500 kg/ha): 9.0
ZEAMX herbicidal rating (ZEAMX (Corn, Field); rate 0.0320 kg/ha): 4.5
ZEAMX herbicidal rating (ZEAMX (Corn, Field); rate 0.0620 kg/ha): 5.0
herbicidal rating, ECHORC ([5]; rate 0.0080 kg/ha): 5.0
herbicidal rating, ECHORC ([5]; rate 0.0320 kg/ha): 7.5
herbicidal rating, ECHORC ([5]; rate 0.1250 kg/ha): 9.0
Preemergence herbicidal rating ORYSAT (ORYSAT (Rice, Tebonnet) [6]; Rate 0.0620 kg/ha): 7.5
Preemergence herbicidal rating ORYSAT (ORYSAT (Rice, Tebonnet) [6]; Rate 0.1250 kg/ha): 9.0
Preemergence herbicidal rating ORYSAT (ORYSAT (Rice, Tebonnet) [6]; Rate 0.2500 kg/ha): 9.0
Preemergence herbicidal rating AMBEL ([7]; Rate 0.0620 kg/ha): 9.0
Preemergence herbicidal rating AMBEL ([7]; Rate 0.1250 kg/ha): 9.0
Preemergence herbicidal rating AMBEL ([7]; Rate 0.2500 kg/ha): 9.0
Preemergence herbicidal rating CHEAL ([8]; Rate 0.0620 kg/ha): 9.0
Preemergence herbicidal rating CHEAL ([8]; Rate 0.1250 kg/ha): 9.0
Preemergence herbicidal rating CHEAL ([8]; Rate 0.2500 kg/ha): 9.0
Preemergence herbicidal rating CASOB ([9]; Rate 0.0620 kg/ha): 3.5
Preemergence herbicidal rating CASOB ([9]; Rate 0.1250 kg/ha): 7.5
Preemergence herbicidal rating CASOB ([9]; Rate 0.2500 kg/ha): 7.0
IPOHE herbicidal rating ([10]; rate 0.0320 kg/ha): 9.0
IPOHE herbicidal rating ([10]; rate 0.0620 kg/ha): 9.0
GLXMAW herbicidal rating ([11]; rate 0.0320 kg/ha): 4.5
GLXMAW herbicidal rating ([11]; rate 0.0620 kg/ha): 5.0
herbicidal rating, ORYSAT (rice tolerance) (ORYSAT (Rice, Tebonnet) [12]; rate 0.0080 kg/ha): 3.0
herbicidal rating, ORYSAT (rice tolerance) (ORYSAT (Rice, Tebonnet) [12]; rate 0.0320 kg/ha): 4.5
herbicidal rating, ORYSAT (rice tolerance) (ORYSAT (Rice, Tebonnet) [12]; rate 0.1250 kg/ha): 9.0
Preemergence herbicidal rating IPOHE ([13]; Rate 0.0620 kg/ha): 7.5
Preemergence herbicidal rating IPOHE ([13]; Rate 0.1250 kg/ha): 7.5
Preemergence herbicidal rating IPOHE ([13]; Rate 0.2500 kg/ha): 8.0
ECHCG herbicidal rating ([14]; rate 0.0320 kg/ha): 1.0
ECHCG herbicidal rating ([14]; rate 0.0620 kg/ha): 1.0
herbicidal rating, CYPIR (CYPIR (Cyperus iria); rate 0.0080 kg/ha): 0.0
herbicidal rating, CYPIR (CYPIR (Cyperus iria); rate 0.0320 kg/ha): 6.0
herbicidal rating, CYPIR (CYPIR (Cyperus iria); rate 0.1250 kg/ha): 9.0
ORYSAT herbicidal rating (ORYSAT (Rice, Tebonnet) [15]; rate 0.0320 kg/ha): 3.0
ORYSAT herbicidal rating (ORYSAT (Rice, Tebonnet) [15]; rate 0.0620 kg/ha): 4.5
SETVI herbicidal rating (SETVI (Setaria viridis) [16]; rate 0.0320 kg/ha): 1.0
SETVI herbicidal rating (SETVI (Setaria viridis) [16]; rate 0.0620 kg/ha): 1.0
herbicidal rating, MOOVA ([17]; rate 0.0320 kg/ha): 9.0
herbicidal rating, MOOVA ([17]; rate 0.1250 kg/ha): 9.0
